Patent US20230143612A1 (Arbutus Biopharma Corporation, priority 2020, published 2023)

Molecular target: PD-L1 His protein / PD-1 Fc protein (Homo sapiens, UniProt Q9NZQ7)
Experiment: HTRF Assay (PD-1/PD-L1 interaction)
Type: binding
Details: PD-L1 His 6 nM, PD-1 Fc 6 nM
Method in brief: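 Compounds tested from 20 μM down to 0.001 μM (3-fold) against 6 nM PD-L1 His and 6 nM PD-1 Fc, 15 min room temperature incubation. Detection after 1 h at room temperature with Tb cryptate anti-6HIS and XL665 anti-human IgG reagents (mixture at 0.35 nM and 6.7 nM), HTRF signal.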

Chain of PD-L1 His protein / PD-1 Fc protein (Q9NZQ7 19-238 limits assumed): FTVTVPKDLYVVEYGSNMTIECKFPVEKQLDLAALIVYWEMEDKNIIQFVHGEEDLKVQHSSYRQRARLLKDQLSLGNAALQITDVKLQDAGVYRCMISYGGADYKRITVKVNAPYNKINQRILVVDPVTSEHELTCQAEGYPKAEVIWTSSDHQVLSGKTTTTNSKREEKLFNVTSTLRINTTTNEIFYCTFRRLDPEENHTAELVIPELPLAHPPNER

Compared with `COc1nc(-c2cccc(-c3cccc(-c4ccn5c(=O)c(CN[C@@H](CO)C(=O)O)cnc5c4)c3Cl)c2Cl)ccc1CNCCO` [Example 191, ((8-(2,2′-Dichloro-3′-(5-(((2-hydroxyethyl)amino)methyl)-6-methoxypyridin-2-yl)-[1,1′-biphenyl]-3-yl)-4-oxo-4H-pyrido[1,2-a]pyrimidin-3-yl)methyl)-L-serine], `COc1nc(-c2cccc(-c3cccc(-c4ccn5c(=O)c(CNC[C@@H](C)O)cnc5c4)c3Cl)c2Cl)ccc1CNC[C@H](C)O` [Example 195, 8-(2,2′-Dichloro-3′-(5-((((S)-2-hydroxypropyl)amino)methyl)-6-methoxypyridin-2-yl)-[1,1′-biphenyl]-3-yl)-3-((((R)-2-hydroxypropyl)amino)methyl)-4H-pyrido[1,2-a]pyrimidin-4-one] is 25-fold higher in IC50: 0.1 nM for the first, 2.5 nM for the second.

First: COC(=O)[C@H]1CCN(Cc2cnc3cc(-c4cccc(-c5cccc(-c6ccc(CNC[C@@H]7CCC(=O)N7)c(OC)n6)c5Cl)c4Cl)ccn3c2=O)C1 [Example 192, (S)-Methyl 1-((8-(2,2′-dichloro-3′-(6-methoxy-5-(((((S)-5-oxopyrrolidin-2-yl)methyl)amino)methyl)pyridin-2-yl)-[1,1′-biphenyl]-3-yl)-4-oxo-4H-pyrido[1,2-a]pyrimidin-3-yl)methyl)pyrrolidine-3-carboxylate]
Second: CNC(=O)CNCc1cnc2cc(-c3cccc(-c4cccc(-c5ccc(CNC[C@@H]6CCC(=O)N6)c(OC)n5)c4Cl)c3Cl)ccn2c1=O [Example 202, (S)-2-(((8-(2,2′-Dichloro-3′-(6-methoxy-5-((((5-oxopyrrolidin-2-yl)methyl)amino)methyl)pyridin-2-yl)-[1,1′-biphenyl]-3-yl)-4-oxo-4H-pyrido[1,2-a]pyrimidin-3-yl)methyl)amino)-N-methylacetamide]
The IC50 of the first is 8-fold higher: 0.8 nM for the first, 0.1 nM for the second. The second is the more potent here.

Compared with `COc1nc(-c2cccc(-c3cccc(-c4ccn5c(=O)c(CNC[C@H](C)O)c(C)nc5c4)c3Cl)c2Cl)ccc1CNC[C@@H]1CCC(=O)N1` [Example 193, 8-(2,2′-Dichloro-3′-(6-methoxy-5-(((((S)-5-oxopyrrolidin-2-yl)methyl)amino)methyl)pyridin-2-yl)-[1,1′-biphenyl]-3-yl)-3-((((S)-2-hydroxypropyl)amino)methyl)-2-methyl-4H-pyrido[1,2-a]pyrimidin-4-one], `COc1nc(-c2cccc(-c3cccc(-c4ccn5c(=O)c(CNC[C@@H]6CCC(=O)N6)cnc5c4)c3Cl)c2Cl)ccc1CNC[C@H](C)O` [Example 197, 8-(2,2′-Dichloro-3′-(5-((((S)-2-hydroxypropyl)amino)methyl)-6-methoxypyridin-2-yl)-[1,1′-biphenyl]-3-yl)-3-(((((S)-5-oxopyrrolidin-2-yl)methyl)amino)methyl)-4H-pyrido[1,2-a]pyrimidin-4-one] is 2-fold higher in IC50: 0.1 nM for the first, 0.2 nM for the second. The first is the more potent here.

Compared with `COc1nc(-c2cccc(-c3cccc(-c4ccc5c(OC)c(CNC[C@@H]6CCC(=O)N6)cc(Cl)c5n4)c3Cl)c2Cl)ccc1CNC[C@@H]1CCC(=O)N1` [Example 194, (S)-5-((((8-Chloro-2-(2,2′-dichloro-3′-(6-methoxy-5-(((((S)-5-oxopyrrolidin-2-yl)methyl)amino)methyl)pyridin-2-yl)-[1,1′-biphenyl]-3-yl)-5-methoxyquinolin-6-yl)methyl)amino)methyl)pyrrolidin-2-one], `COc1c(CNC[C@@H]2CCC(=O)N2)cc(Cl)c2nc(-c3cccc(-c4cccc(-c5ccn6c(=O)c(CNC[C@@H]7CCC(=O)N7)cnc6c5)c4Cl)c3Cl)ccc12` [Example 203, 8-[2-chloro-3-[2-Chloro-3-[8-chloro-5-methoxy-6-[[[(2S)-5-oxopyrrolidin-2-yl]methylamino]methyl]-2-quinolyl]phenyl]phenyl]-3-[[[(2S)-5-oxopyrrolidin-2-yl]methylamino]methyl] pyrido[1,2-a]pyrimidin-4-one] is 5.8-fold higher in IC50: 26 nM for the first, 150 nM for the second.

Going from `COc1nc(-c2cccc(-c3cccc(-c4ccn5c(=O)c(CNC[C@H](C)O)cnc5c4)c3Cl)c2Cl)ccc1CNC[C@@H](C)O` [Example 196, 8-(2,2′-Dichloro-3′-(5-((((R)-2-hydroxypropyl)amino)methyl)-6-methoxypyridin-2-yl)-[1,1′-biphenyl]-3-yl)-3-((((S)-2-hydroxypropyl)amino)methyl)-4H-pyrido[1,2-a]pyrimidin-4-one] to `COc1nc(-c2cccc(-c3cccc(-c4ccn5c(=O)c(CNC[C@@H]6CCC(=O)N6)cnc5c4)c3Cl)c2Cl)ccc1CNC[C@@H](C)O` [Example 198, 8-(2,2′-Dichloro-3′-(5-((((R)-2-hydroxypropyl)amino)methyl)-6-methoxypyridin-2-yl)-[1,1′-biphenyl]-3-yl)-3-(((((S)-5-oxopyrrolidin-2-yl)methyl)amino)methyl)-4H-pyrido[1,2-a]pyrimidin-4-one], the IC50 falls from 2.8 nM to 0.3 nM (9.3-fold). The second is the more potent here.

`CNC(=O)CN(C)Cc1cnc2cc(-c3cccc(-c4cccc(-c5ccc(CNC[C@@H]6CCC(=O)N6)c(OC)n5)c4Cl)c3Cl)ccn2c1=O` [Example 200, (S)-2-(((8-(2,2′-Dichloro-3′-(6-methoxy-5-((((5-oxopyrrolidin-2-yl)methyl)amino)methyl)pyridin-2-yl)-[1,1′-biphenyl]-3-yl)-4-oxo-4H-pyrido[1,2-a]pyrimidin-3-yl)methyl)(methyl)amino)-N-methylacetamide] and `CNC(=O)CCNCc1cnc2cc(-c3cccc(-c4cccc(-c5ccc(CNC[C@@H]6CCC(=O)N6)c(OC)n5)c4Cl)c3Cl)ccn2c1=O` [Example 210, (S)-3-(((8-(2,2′-dichloro-3′-(6-methoxy-5-((((5-oxopyrrolidin-2-yl)methyl)amino)methyl)pyridin-2-yl)-[1,1′-biphenyl]-3-yl)-4-oxo-4H-pyrido[1,2-a]pyrimidin-3-yl)methyl)amino)-N-methylpropanamide] are the same in IC50: 0.1 nM for the first, 0.1 nM for the second.

First: COc1nc(-c2cccc(-c3cccc(-c4ccn5c(=O)c(CNC[C@@H]6CCC(=O)N6)c(OC)nc5c4)c3Cl)c2Cl)ccc1CNC[C@@H]1CCC(=O)N1 [Example 201, 8-(2,2′-Dichloro-3′-(6-methoxy-5-(((((S)-5-oxopyrrolidin-2-yl)methyl)amino)methyl)pyridin-2-yl)-[1,1′-biphenyl]-3-yl)-2-methoxy-3-(((((S)-5-oxopyrrolidin-2-yl)methyl)amino)methyl)-4H-pyrido[1,2-a]pyrimidin-4-one]
Second: COc1nc(-c2cccc(-c3cccc(-c4ccn5c(=O)c(CNCC[C@@H]6CCC(=O)N6)cnc5c4)c3Cl)c2Cl)ccc1CNC[C@@H]1CCC(=O)N1 [Example 214, 8-[2-chloro-3-[2-chloro-3-[6-methoxy-5-[[[(2S)-5-oxopyrrolidin-2-yl]methylamino]methyl]-2-pyridyl]phenyl]phenyl]-3-[[2-[(2S)-5-oxopyrrolidin-2-yl]ethylamino]methyl]pyrido[1,2-a]pyrimidin-4-one]
The IC50 of the first is 200-fold higher: 100 nM for the first, 0.5 nM for the second.

First: COc1nc(-c2cccc(-c3cccc(-c4ccn5c(=O)c(CN[C@H]6C[C@](C)(O)C6)c(C)nc5c4)c3Cl)c2Cl)ccc1CNC[C@@H]1CCC(=O)N1 [Example 204, 8-(2,2′-Dichloro-3′-(6-methoxy-5-(((((S)-5-oxopyrrolidin-2-yl)methyl)amino)methyl)pyridin-2-yl)-[1,1′-biphenyl]-3-yl)-3-((((1r,3r)-3-hydroxy-3-methylcyclobutyl)amino)methyl)-2-methyl-4H-pyrido[1,2-a]pyrimidin-4-one]
Second: COc1nc(-c2cccc(-c3cccc(-c4cc(C)n5c(=O)c(CN[C@H]6C[C@](C)(O)C6)cnc5c4)c3Cl)c2Cl)ccc1CNC[C@@H]1CCC(=O)N1 [Example 211]
The IC50 of the first is 210-fold lower: 0.1 nM for the first, 21 nM for the second.

First: COc1nc(-c2cccc(-c3cccc(-c4ccn5c(=O)c(CN[C@H]6C[C@](C)(O)C6)c(C)nc5c4)c3Cl)c2Cl)ccc1CN[C@H]1C[C@](C)(O)C1 [Example 205, 8-(2,2′-Dichloro-3′-(5-((((1r,3r)-3-hydroxy-3-methylcyclobutyl)amino)methyl)-6-methoxypyridin-2-yl)-[1,1′-biphenyl]-3-yl)-3-((((1r,3r)-3-hydroxy-3-methylcyclobutyl)amino)methyl)-2-methyl-4H-pyrido[1,2-a]pyrimidin-4-one]
Second: CNC(=O)C(C)(C)NCc1cnc2cc(-c3cccc(-c4cccc(-c5ccc(CNC[C@@H]6CCC(=O)N6)c(OC)n5)c4Cl)c3Cl)ccn2c1=O [Example 209, (S)-2-(((8-(2,2′-Dichloro-3′-(6-methoxy-5-((((5-oxopyrrolidin-2-yl)methyl)amino)methyl)pyridin-2-yl)-[1,1′-biphenyl]-3-yl)-4-oxo-4H-pyrido[1,2-a]pyrimidin-3-yl)methyl)amino)-N,2-dimethylpropanamide]
The IC50 of the first is 9-fold higher: 0.9 nM for the first, 0.1 nM for the second. The second is the more potent here.

First: COc1nc(-c2cccc(-c3cccc(-c4ccn5c(=O)c(CNCCN6CCNC6=O)cnc5c4)c3Cl)c2Cl)ccc1CNC[C@@H]1CCC(=O)N1 [Example 207, (S)-8-(2,2′-Dichloro-3′-(6-methoxy-5-((((5-oxopyrrolidin-2-yl)methyl)amino)methyl)pyridin-2-yl)-[1,1′-biphenyl]-3-yl)-3-(((2-(2-oxoimidazolidin-1-yl)ethyl)amino)methyl)-4H-pyrido[1,2-a]pyrimidin-4-one]
Second: COc1nc(-c2cccc(-c3cccc(-c4ccn5c(=O)c(CNC[C@@H]6CCC(=O)N6)cnc5c4)c3C(F)(F)F)c2Cl)ccc1CNC[C@@H]1CCC(=O)N1 [Example 208, 8-(2′-Chloro-3′-(6-methoxy-5-(((((S)-5-oxopyrrolidin-2-yl)methyl)amino)methyl)pyridin-2-yl)-2-(trifluoromethyl)-[1,1′-biphenyl]-3-yl)-3-(((((S)-5-oxopyrrolidin-2-yl)methyl)amino)methyl)-4H-pyrido[1,2-a]pyrimidin-4-one]
The IC50 of the first is 130-fold lower: 0.3 nM for the first, 38 nM for the second.

`COc1nc(-c2cccc(-c3cccc(-c4ccc5nc(CNC[C@@H]6CCC(=O)N6)cc(=O)n5c4)c3Cl)c2Cl)ccc1CNC[C@@H]1CCC(=O)N1` [Example 212, 7-(2,2′-Dichloro-3′-(6-methoxy-5-(((((S)-5-oxopyrrolidin-2-yl)methyl)amino)methyl)pyridin-2-yl)-[1,1′-biphenyl]-3-yl)-2-(((((S)-5-oxopyrrolidin-2-yl)methyl)amino)methyl)-4H-pyrido[1,2-a]pyrimidin-4-one] was tested, and the IC50 was 0.1 nM.
